From patent US20080194590A1, “4-Piperazinylthieno [2,3-D] Pyrimidine Compounds as Platelet Aggregation Inhibitors” (Pfizer Inc, priority 2005, published 2008)
Values joined by “and” are separate entries in the source; they are usually repeats but may differ in a detail not shown here. Equal entries are not always repeated.

How the values were obtained:
P2Y12 receptor [1] = target: T1, P2Y12 receptor (Homo sapiens, UniProt Q9H244); assay: Inhibition of [33P]2MeS-ADP binding to washed human platelet membranes (Assay 1); design: the P2Y12 receptor, which is found on the surface of platelets; tissue Interstate Blood bank, Memphis, Tenn; host or cells: human platelets from platelet rich plasma; conditions: for inhibition at 10 µM: highest concentration tested 10 μM; for IC50 / Ki: washed human platelet membranes
T1 sequence (Q9H244 whole entry): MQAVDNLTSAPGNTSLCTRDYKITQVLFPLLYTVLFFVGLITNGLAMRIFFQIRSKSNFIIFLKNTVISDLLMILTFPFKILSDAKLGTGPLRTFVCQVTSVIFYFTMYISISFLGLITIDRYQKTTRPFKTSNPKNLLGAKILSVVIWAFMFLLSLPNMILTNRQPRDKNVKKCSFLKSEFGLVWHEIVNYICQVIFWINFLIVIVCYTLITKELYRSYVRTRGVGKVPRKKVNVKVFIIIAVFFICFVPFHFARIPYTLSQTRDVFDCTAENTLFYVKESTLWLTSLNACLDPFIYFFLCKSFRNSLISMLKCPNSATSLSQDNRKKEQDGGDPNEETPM
Experimental: 1. Inhibition of [^33P]2MeS-ADP Binding to Washed Human Platelet Membranes. The ability of a test compound to bind to the P2Y12 receptor was evaluated in a platelet membrane binding assay. In this competitive binding assay, the test compound competed against a radiolabelled agonist for binding to the P2Y12 receptor, which is found on the surface of platelets. Inhibition of binding of the labeled material was measured and correlated to the amount and potency of the test compound. Data from this assay are presented in Table F. Platelet rich plasma (“PRP”) was obtained from the Interstate Blood bank, Memphis, Tenn. Platelet rich plasma was prepared from blood units collected in ACD ((prepared by (1) combining: 2.5 g sodium citrate (Sigma S-4641); 1.5 g citric acid (Sigma C-0706); and, 2.0 g dextrose (Sigma G-7528); (2) bringing pH to 4.5; and (3) adding water to bring volume to 100 mL) and using the light spin protocol; this protocol involves centrifugation at room temperature for approximately 20 minutes at speeds up to 160×g. Platelet rich plasma is supplied in units of approximately 200 ml. Each unit is distributed into four 50 mL polypropylene conical tubes for centrifugation, Blood from each donor is maintained separately.
The 50 mL tubes were centrifuged for 15 minutes at 1100 rpm in Sorvall RT6000D (with H1000B rotor). Internal centrifuge temperature was maintained at approximately room temperature (22-24° C.). This spin pelleted cellular components remaining from the PRP preparation. The supernatant was decanted into fresh 50 mL tubes. To avoid carry over of cellular components following the room temperature centrifugation, approximately 5 mL of PRP was left in the tube and discarded. The tubes were capped and inverted 2-3 times and allowed to stand at room temperature for at least 15 minutes following inversion.
Optionally, a Coulter Counter may be used to count platelets from the resting samples during the resting phase. Normal human platelet counts are expected to range from 200,000 to 400,000 per μL of PRP supernatant.
The 50 mL tubes containing PRP supernatant were centrifuged for 15 minutes at 2300-2400 rpm to loosely pellet the platelets. The supernatant from this spin was decanted immediately into a clean cell culture bottle (Corning bottle) and saved in case further centrifugation was needed. The pellet of each tube was resuspended in 2-4 mL of Wash buffer (pH 6.5) (1 L prepared new daily—134 mM NaCl (Sigma S-5150); 3 mM KCl (Sigma P-9333); 1 mM CaCl2 (JT Baker 1311-01); 2 mM MgCl2 (Sigma M-2670); 5 mM glucose (EM 4074-2); 0.3 mM NaH2PO4 (Sigma S-9638)/12 mM NaHCO3 (J T Baker 3506-01); 5 mM HEPES pH 7.4 (Gibco 12379-012); 0.35% BSA (Sigma A-7906); 330 mg Heparin (bovine lung, Sigma H-4898); and 30 mL of ACD) by repeated gentle aspiration using disposable polypropylene sample pipettes.
Wash buffer (pH 6.5) was added to each tube to bring the volume to approximately 40 mL. Each tube was incubated for at least 15 minutes at 37° C.
The tubes were then centrifuged again for 15 minutes at 2300-2400 rpm to loosely pellet the platelets. The supernatant was decanted and discarded. The pellet was resuspended in 2-4 mL of Assay buffer (pH 7.4) (1 L volume—134 mM NaCl; 3 mM KCl; 1 mM CaCl2; 2 mM MgCl2; 5 mM glucose; 0.3 mM NaH2PO4/12 mM NaHCO3; 5 mM HEPES pH 7.4; and 0.35% BSA) by repeated aspiration using disposable polypropylene sample pipettes.
The pooled platelet preparation was counted using a Coulter Counter. The final concentration of platelets was brought to 1×10^6 per μL using Assay buffer pH 7.4. The platelets were rested for a minimum of 45 minutes at 37° C. before use in the assay.
In one embodiment, the compounds were tested in 96-well microtiter filterplates (Millipore Multiscreen-FB opaque plates, #MAFBNOB50). These plates were used in the assay and pre-wet with 50 μL of Assay buffer pH 7.4 then filtered through completely with a Millipore plate vacuum. […]

P2Y12 receptor [2] = target: T1, P2Y12 receptor; assay: Human P2Y12 recombinant cell membrane binding assay with 33P 2MeS-ADP (Assay 3); design: expressed in transfected cells; host or cells: HEK cells; conditions: highest concentration tested 1 μM; read-out: [33P]-2MeS-ADP Binding to Recombinant Human P2Y12 Membranes (Assay 3) % Inhibition
P2Y12 receptor [3] = target: T1, P2Y12 receptor; assay: as above; design: expressed in transfected cells; host or cells: HEK cells; conditions: for IC50 / Ki: HEK cell membranes expressing P2Y12, multiple lines = multiple runs; for [33P]-2MeS-ADP Binding to Recombinant Human P2Y12 Membranes (Assay 3) % Inhibition / inhibition at 10 µM: highest concentration tested 10 μM; for inhibition at 10 µM: read-out: [33P]-2MeS-ADP Binding to Recombinant Human P2Y12 Membranes (Assay 3) % Inhibition
Experimental: 3. Human P2Y12 Recombinant Cell Membrane Binding Assay with ^33P 2MeS-ADP.
The ability of a test compound to bind to the P2Y12 receptor was evaluated in a recombinant cell membrane binding assay. In this competitive binding assay, the test compound competed against a radiolabelled agonist for binding to the P2Y12 receptor, expressed on the cell membrane. Inhibition of binding of the labeled material was measured and correlated to the amount and potency of the test compound. Data from this assay are presented in Table F. This binding assay is a modification of the procedure in Takasaki, J. et. al, Mol. Pharmacol., 2001, Vol. 60, pg. 432.
HEK cells were transfected with the pDONR201P2Y12 vector and cultured in MEM with GlutaMAX I, Earle's salts, 25 mM HEPES (Gibco # 42360-032) containing 10% dialyzed FBS (Gibco # 26400-044), 100 μM nonessential amino acids (Gibco # 11140-050), 1 mM sodium pyruvate (Gibco # 11360-070), 0.05% geneticin (Gibco #10131-027), 3 μg/mL blasticidin (Fluka brand from Sigma # 15205), and 0.5 μg/mL puromycin (Sigma # P-8833).
Confluent cells were washed once with cold DPBS (Gibco # 14190-136). Fresh DPBS was added and the cells were scraped and centrifuged at 500×g for 5 minutes at 4° C. The cell pellets were resuspended in TEE buffer (25 mM Tris, 5 mM EDTA, 5 mM EGTA) containing 1 protease inhibitor cocktail tablet (Roche # 1 873 580) per 50 mL (called TEE+Complete) and can be flash frozen at this point.
In one embodiment, frozen cell pellets were used to prepare the membranes. In that embodiment, the frozen cell pellets were thawed on ice. In another embodiment, cell pellets may be used without flash freezing before moving on to the next step.
Cell pellets were resuspended in TEE buffer+Complete and homogenized in a glass dounce for 12 strokes. The cell suspension was centrifuged at 500×g for 5 minutes at 4° C. The supernatant was saved and centrifuged at 20,000×g for 20 minutes at 4° C. This supernatant was discarded and the cell pellet resuspended in TEE buffer+Complete and homogenized in a glass dounce for 12 strokes. This suspension was centrifuged at 20,000×g for 20 minutes at 4° C. and the supernatant discarded. The pellet was resuspended in assay buffer (50 mM Tris, 100 mM NaCl, 1 mM EDTA) containing one protease inhibitor cocktail tablet per 50 mL, and can be flash frozen as 1 mL aliquots at this point.
Dry compounds were diluted as 10 mM DMSO stocks and tested in a seven-point, three-fold dilution series run in triplicate beginning at 10 μM, final concentration. A 1 mM DMSO intermediate stock was made in a dilution plate and from this the seven dilutions were made to 5× the final concentration in assay buffer containing 0.02% BSA.
To a polypropylene assay plate (Costar # 3365) the following were added: a) 30 μL of assay buffer containing one protease inhibitor cocktail tablet per 50 mL; b) 30 μL of 1 nM ^33P 2MeS-ADP made in assay buffer containing 0.02% BSA and 12.5 mg/mL ascorbic acid; 30 μL of cold 1.5 μM 2MeS-ADP for the positive control wells, or assay buffer containing 0.02% BSA and 12.5 mg/mL ascorbic acid for the negative control wells, or 5× drug dilution; and 60 μL of 1 ug/well membranes.
The plates were incubated at room temperature for 1 hour. The reaction was stopped using a cell harvester to transfer the reaction mixture onto GF/B UniFilter plates (Perkin Elmer # 6005177), and washed three times with wash buffer (50 mM Tris), filtering between each wash. The filter plates were dried for approximately 20 minutes in an oven at 50° C. Back seals were adhered to the filter plates and 25 uL of Microscint 20 scintillation fluid (Perkin Elmer # 6013621) were added. The filter plates were sealed, shaken for 30 minutes, and counted on a Top Count. Data were analyzed using a four-parameter curve fit with a fixed minimum and maximum experimentally defined as the average positive and negative controls on each plate, and with a hill slope equal to one.

SMILES	inhibition at 10 µM (P2Y12 receptor [1]) [%]	IC50 (P2Y12 receptor [1]) [nM]	Ki (P2Y12 receptor [1]) [nM]	inhibition at 1 µM (P2Y12 receptor [2]) [%]	IC50 (P2Y12 receptor [3])	Ki (P2Y12 receptor [3])	[33P]-2MeS-ADP Binding to Recombinant Human P2Y12 Membranes (Assay 3) % Inhibition (P2Y12 receptor [3]) [%]	inhibition at 10 µM (P2Y12 receptor [3]) [%]
CCc1cc2c(N3CCN(C(=O)Cc4ccccc4)CC3)nc(NCCO)nc2s1 [Example 11, 2-({6-Ethyl-4-[4-(phenylacetyl)piperazin-1-yl]thieno[2,3-d]pyrimidin-2-yl}amino)ethanol]				51	1130 nM and 1190 nM and 905 nM	650 nM and 687 nM and 905 nM	82.93	76.7
CCc1cc2c(N3CCN(C(=O)Cc4ccccc4)CC3)nc(NCc3ccc(F)cc3)nc2s1 [Example 13, 6-Ethyl-N-(4-fluorobenzyl)-4-[4-(phenylacetyl)piperazin-1-yl]thieno[2,3-d]pyrimidin-2-amine]	45.6	> 10000						
CCc1cc2c(N3CCN(C(=O)Cc4ccccc4)CC3)nc(NCc3cccc(F)c3)nc2s1 [Example 14, 6-Ethyl-N-(3-fluorobenzyl)-4-[4-(phenylacetyl)piperazin-1-yl]thieno[2,3-d]pyrimidin-2-amine]	39.9	> 10000						
CCc1cc2c(N3CCN(C(=O)Cc4ccccc4)CC3)nc(NCc3ccccc3)nc2s1 [Example 15, N-benzyl-6-ethyl-4-[4-(phenylacetyl)piperazin-1-yl]thieno[2,3-d]pyrimidin-2-amine]	44	> 10000						
CCc1cc2c(N3CCN(C(=O)c4ccc(-c5ccccc5)cc4)CC3)nc(NC[C@H](O)CO)nc2s1 [Example 26, (2S)-3-({4-[4-(1,1′-biphenyl-4-ylcarbonyl)piperazin-1-yl]-6-ethylthieno[2,3-]pyrimidin-2-yl}amino)propane-1,2-diol]				90	20 nM and 61 nM and 47 nM	10 nM and 35 nM and 27 nM	94.85	98.6
CCc1cc2c(N3CCN(C(=O)c4ccc(-c5ccccc5)cc4)CC3)nc(NC[C@@H](O)CO)nc2s1 [Example 27, (2R)-3-({4-[4-(1,1′-biphenyl-4-ylcarbonyl)piperazin-1-yl]-6-ethylthieno[2,3-d]pyrimidin-2-yl}amino)propane-1,2-diol]				92	10 nM and 48 nM and 43 nM	10 nM and 28 nM and 25 nM	93.86	100

The next lines start with the values.

inhibition at 10 µM (P2Y12 receptor [1]) [%]	IC50 (P2Y12 receptor [1]) [nM]	Ki (P2Y12 receptor [1]) [nM]	inhibition at 1 µM (P2Y12 receptor [2]) [%]	IC50 (P2Y12 receptor [3])	Ki (P2Y12 receptor [3])	[33P]-2MeS-ADP Binding to Recombinant Human P2Y12 Membranes (Assay 3) % Inhibition (P2Y12 receptor [3]) [%]	inhibition at 10 µM (P2Y12 receptor [3]) [%]	SMILES
37.4	> 10000							CCc1cc2c(N3CCN(C(=O)Cc4ccccc4)CC3)nc(NCCCc3ccccc3)nc2s1 [Example 7, 6-Ethyl-4-[4-(phenylacetyl)piperazin-1-yl]-N-(3-phenylpropyl)thieno[2,3-d]pyrimidin-2-amine]
42.2	9850	9320						CCc1cc2c(N3CCN(C(=O)Cc4ccccc4)CC3)nc(NCc3ccco3)nc2s1 [Example 8, 6-Ethyl-N-(2-furylmethyl)-4-[4-(phenylacetyl)piperazin-1-yl]thieno[2,3-d]pyrimidin-2-amine]
75	3400	3210						CCc1cc2c(N3CCN(C(=O)Cc4ccccc4)CC3)nc(NCCCO)nc2s1 [Example 9, 3-({6-Ethyl-4-[4-(phenylacetyl)piperazin-1-yl]thieno[2,3-d]pyrimidin-2-yl}amino)propan-1-ol]
37.3	> 10000							CCc1cc2c(N3CCN(C(=O)Cc4ccccc4)CC3)nc(NC3CCCCC3)nc2s1 [Example 10, N-Cyclohexyl-6-ethyl-4-[4-(phenylacetyl)piperazin-1-yl]thieno[2,3-d]pyrimidin-2-amine]
43.6	> 10000							CCc1cc2c(N3CCN(C(=O)Cc4ccccc4)CC3)nc(NC3CCCC3)nc2s1 [Example 12, N-Cyclopentyl-6-ethyl-4-[4-(phenylacetyl)piperazin-1-yl]thieno[2,3-d]pyrimidin-2-amine]
